Tests used:
[1] = biological target: T1, α1B-adrenoceptor (spleen) (Rattus norvegicus, UniProt P15823); assay: In vitro functional assay, phenylephrine-induced contraction of isolated spleen; format: cell-based; conditions: rat spleen, phenylephrine; read-out: In Vitro Functional Assay (pKB) α1B (converted)
T1 construct: Aorta, prostate and spleen tissues were isolated from urethane anaesthetized (1.5 gm/kg) male wistar rats; from tissue; host or cells: isolated spleen of male Wistar rats
T1 sequence (P15823 1-515): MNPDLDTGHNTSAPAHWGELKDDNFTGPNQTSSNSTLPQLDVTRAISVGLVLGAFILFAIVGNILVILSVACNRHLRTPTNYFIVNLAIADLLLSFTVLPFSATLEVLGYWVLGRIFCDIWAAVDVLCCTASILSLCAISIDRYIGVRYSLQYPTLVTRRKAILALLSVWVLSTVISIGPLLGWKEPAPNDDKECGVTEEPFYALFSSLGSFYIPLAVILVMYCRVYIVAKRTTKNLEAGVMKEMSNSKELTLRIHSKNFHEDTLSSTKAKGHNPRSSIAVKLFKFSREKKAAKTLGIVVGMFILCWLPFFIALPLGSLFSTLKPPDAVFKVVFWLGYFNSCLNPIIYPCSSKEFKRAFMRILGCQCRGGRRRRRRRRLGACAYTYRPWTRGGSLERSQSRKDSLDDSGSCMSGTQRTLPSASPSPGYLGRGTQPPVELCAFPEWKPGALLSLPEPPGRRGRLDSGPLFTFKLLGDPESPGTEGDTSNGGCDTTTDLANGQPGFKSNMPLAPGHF
Excerpt: (§1) In order to study selectivity of action of the present compounds towards different α-adrenoceptor subtypes, the ability of these compounds to antagonize α1-adrenoceptor agonist induced contractile response of aorta (α1D), prostate (α1A) and spleen (α1B) was studied. Aorta, prostate and spleen tissues were isolated from urethane anaesthetized (1.5 gm/kg) male wistar rats. Isolated tissues were mounted in organ bath containing Krebs Henseleit buffer of the following composition (mM): NaCl 118; KCl 4.7; CaCl2 2.5; MgSO4·H2O 1.2; NaHCO3 25; KH2PO4 1.2; glucose 11.5. Buffer was maintained at 37° C. and aerated with a mixture of 95% O2 and 5% CO2. A resting tension of 2 g (aorta) or 1 g (spleen and prostate) was applied to tissues. Contractile response was monitored using a force displacement transducer and recorded on chart recorders. Tissues were allowed to equilibrate for 2 hours. At the end of equilibration period, concentration response curves to norepinephrine (aorta) and phenylephrine (spleen and prostate) were obtained in the absence and presence of the tested compound (at concentrations of 0.1, 1 and 10 μM). Antagonist affinity was calculated and expressed as PKB values in Table 1.

[2] = system: anaesthetized dogs (blood pressure); assay: In vivo selectivity study, phenylephrine response on blood pressure in anaesthetized dogs; design: species or system dog; conditions: Canis lupus familiaris, iv 0.01-0.3 mg/kg, against phenylephrine, read-out: pseudo pKB Blood Pressure (converted)
Experimental: Male mongrel dogs (12-20 Kg) were anaesthetized with pentobarbitone sodium (35 mg/kg, iv). Trachea was intubated for artificial respiration. Femoral artery and femoral vein were cannulated for recording blood pressure and for administration of drug solutions, respectively. Blood pressure was recorded on a polygraph through a pressure transducer. A paramedian incision was made lateral to the penis and the bladder was exposed. Urine was drained through a cannula put directly into the bladder and it was guided into the urethra gently and was placed at the prostatic urethra. Balloon was inflated with 2 cc air and its placement was confirmed by digital pressure. Intraurethral pressure was recorded on the polygraph through a pressure transducer. Graded dose response relationship of phenylephrine (1-16 μg/kg, iv) was obtained on prostatic pressure and blood pressure, prior to administration of the compounds of the present invention. Compounds 2, 9, and 13 (at dosages of 0.01, 0.03, 0.1, and 0.3 mg/kg) were administered intravenously 10 min before obtaining phenylephrine dose response curves. Results were analyzed and pseudo PKB values were calculated as described in Kenny et al (1996).

α1D-adrenoceptor (aorta) = biological target: T2, α1D-adrenoceptor (aorta) (Rattus norvegicus, UniProt P23944); assay: In vitro functional assay, norepinephrine-induced contraction of isolated aorta; format: cell-based; conditions: rat aorta, norepinephrine; read-out: In Vitro Functional Assay (pKB) α1D (converted)
T2 construct: Aorta, prostate and spleen tissues were isolated from urethane anaesthetized (1.5 gm/kg) male wistar rats; from tissue; host or cells: isolated aorta of male Wistar rats
T2 sequence (P23944 1-561): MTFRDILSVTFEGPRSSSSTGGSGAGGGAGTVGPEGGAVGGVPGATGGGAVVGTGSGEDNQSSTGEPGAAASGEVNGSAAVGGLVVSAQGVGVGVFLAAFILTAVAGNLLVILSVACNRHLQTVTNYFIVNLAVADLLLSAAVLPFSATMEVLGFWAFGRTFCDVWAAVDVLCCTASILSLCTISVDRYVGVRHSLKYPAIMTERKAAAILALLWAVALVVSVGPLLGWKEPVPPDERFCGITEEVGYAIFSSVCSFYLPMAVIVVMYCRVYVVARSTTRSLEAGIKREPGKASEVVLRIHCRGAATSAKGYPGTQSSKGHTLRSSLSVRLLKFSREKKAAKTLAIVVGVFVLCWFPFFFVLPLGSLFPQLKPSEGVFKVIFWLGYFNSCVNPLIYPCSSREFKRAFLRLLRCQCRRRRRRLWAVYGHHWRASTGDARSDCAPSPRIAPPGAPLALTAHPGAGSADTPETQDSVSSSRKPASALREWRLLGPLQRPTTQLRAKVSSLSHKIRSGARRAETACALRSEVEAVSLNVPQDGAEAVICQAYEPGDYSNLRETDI
Excerpt: as §1

ETA = biological target: T3, ETA (Rattus norvegicus, UniProt P26684); assay: Receptor selectivity, rat aorta; format: cell-based; conditions: read-out: pKB ETA (converted)
T3 construct: from tissue; host or cells: rat aorta
T3 sequence (P26684 21-426): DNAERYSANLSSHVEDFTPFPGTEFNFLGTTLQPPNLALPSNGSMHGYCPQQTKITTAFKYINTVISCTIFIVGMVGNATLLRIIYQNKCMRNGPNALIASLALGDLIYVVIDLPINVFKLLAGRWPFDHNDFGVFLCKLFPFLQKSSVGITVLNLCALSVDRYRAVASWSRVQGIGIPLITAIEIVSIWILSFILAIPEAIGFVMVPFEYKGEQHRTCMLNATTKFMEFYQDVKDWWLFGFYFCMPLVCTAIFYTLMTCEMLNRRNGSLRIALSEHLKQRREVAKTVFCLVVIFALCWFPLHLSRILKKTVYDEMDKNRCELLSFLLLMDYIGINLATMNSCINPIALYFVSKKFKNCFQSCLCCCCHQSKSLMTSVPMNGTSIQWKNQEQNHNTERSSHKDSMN
Experimental: Selectivity of action of the present compounds was tested against a range of different receptors, e.g., β1- and α2-adrenergic, muscarinic cholinergic, serotoninergic (5-HT2A), histaminergic (H1), angiotensin II, endothelin (ETA and B,), as well as calcium and potassium channels. Rat aorta was used to study the effect of the compounds on 5-HT2A, ETA, calcium and potassium channels. Angiotensin II receptor antagonistic activity was studied in rabbit aorta. Muscarinic cholinergic receptor and ETB receptor antagonistic activity was studied in rat trachea, while guinea pig trachea was used to study H1 receptor antagonistic activity. Electrically stimulated rat vas deferens was used to investigate the effect of α2-adrenoceptors, while β1-adrenoceptor antagonistic activity was studied using electrically stimulated rat ventricular strips. Results of this selectivity study is shown in (Table 2).

Row | Structure (SMILES) | Kb [1] [nM] | Kb [2] [nM] | Kb (α1D-adrenoceptor (aorta)) [nM] | Kb (ETA) [nM]
1 | COc1ccccc1N1CCN(CCCN2C(=O)CCC2=O)CC1 [Compound 2, 1-[4-(2-Methoxyphenyl)piperazin-1-yl]3-(2,5-dioxopyrrolidin-1-yl)propane] | 25.1 | 126 | 50.1 | –
2 | COc1ccccc1N1CCN(CCCCN2C(=O)CCC2=O)CC1 [Compound 9, 1-[4-(2-Methoxyphenyl)piperazin-1-yl]-4-(2,5-dioxopyrrolidin-1-yl)butane] | 10 | 39.8 | 5.01 | 50100
3 | COc1ccccc1N1CCN(CCCN2C(=O)CCCC2=O)CC1 [Compound 13, 1-[4-(2-Methoxyphenyl)piperazin-1-yl]-3-(2,6-dioxopiperidin-1-yl)propane] | 10 | 79.4 | 12.6 | 50100
